From the Kinase Knowledgebase extract (Sharma et al. 2016)

Key:
CDK2 (human) = CDK2 (human) (UniProt P24941); experiment: Cell-Based Assay; conditions: a2780
CDK2 = CDK2 (UniProt P24941); experiment: Enzyme Assay

SMILES | IC50 (CDK2 (human)) [µM] | IC50 (CDK2) [µM]
CN1CCN(S(=O)(=O)c2ccc(-n3nc(C(N)=O)c4ccc5[nH]ncc5c43)cc2)CC1 | > 20 | 
NC(=O)c1nn(-c2ccc(OC(F)(F)F)cc2)c2c1CCc1[nH]ncc1-2 | > 20 | 
COc1ccc(-n2nc(C(=O)O)c3ccc4[nH]ncc4c32)cc1 | > 20 | 
NC(=O)c1nn(-c2ccc(-c3ncc[nH]3)cc2)c2c1CCc1[nH]ncc1-2 | > 20 | 
CNS(=O)(=O)c1ccc(-n2nc(C(N)=O)c3ccc4[nH]ncc4c32)cc1 | > 20 | 
CC(=O)c1nn(-c2ccc(C)cc2)c2c1CCc1[nH]ncc1-2 | > 20 | 
NC(=O)c1nn(-c2ccc(-c3ncc[nH]3)cc2)c2c1ccc1[nH]ncc12 | > 20 | 
N#Cc1ccc(-n2nc(C(N)=O)c3c2-c2cn[nH]c2CC3)cc1 | > 20 | 
NC(=O)c1nn(Cc2ccccc2)c2c1ccc1[nH]ncc12 | 2.98 | 
CNS(=O)(=O)c1ccc(-n2nc(C(N)=O)c3c2-c2cn[nH]c2CC3)cc1 | > 20 | 
NC(=O)c1nn(-c2ccc(C(F)(F)F)cc2)c2c1CCc1[nH]ncc1-2 | > 20 | 

More lines, now with the values ahead:

IC50 (CDK2 (human)) [µM] | IC50 (CDK2) [µM] | SMILES
> 20 |  | CS(=O)(=O)c1ccc(-n2nc(C(N)=O)c3c2-c2cn[nH]c2CC3)cc1
> 20 |  | NC(=O)c1nn(-c2ccc(Cl)cc2)c2c1CCc1[nH]ncc1-2
2.9 |  | CCCCNS(=O)(=O)c1ccc(-n2nc(C(=O)NC)c3ccc4[nH]ncc4c32)cc1
1.65 | 0.087 | CC(=O)c1nn(-c2ccc(C)cc2)c2c1C(C)(C)Cc1[nH]ncc1-2
8.7 | 0.2 | C=CCONC(=O)c1nn(-c2ccc(S(=O)(=O)NCCC)cc2)c2c1ccc1[nH]ncc12
10.2 |  | CCCCNS(=O)(=O)c1ccc(-n2nc(C(=O)NC)c3c2-c2cn[nH]c2CC3)cc1
